Reference: the supplement of paper PMC10307832

Key:
Assay in all cases: relative viability (nuclei count vs DMSO), 5 days (fraction); higher = more cells survive
EPLC-272H = system: EPLC-272H
Outline: (§1)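 Cells from lung cancer lines were seeded into 1536-well plates and, one day later, dosed by pin tool. Treatments were either a single drug or a fixed dose of an anchor drug with five library-drug doses (not always all listed) in √10 steps. After 5 days, nuclei were stained in a one-step fixation (final 0.05% Triton X-100, 1% formaldehyde, 1 ug/ml Hoechst) and counted on 4× images, and relative viability is the treated-to-vehicle nuclei ratio, as the median of duplicate plates.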

NCI-H1975 = system: NCI-H1975
Outline: as §1

LXF-289 = system: LXF-289
Outline: as §1

UMC-11 = system: UMC-11
Outline: as §1

HCC-78 = system: HCC-78
Outline: as §1

NCI-H1915 = system: NCI-H1915
Outline: as §1

SK-LU-1 = system: SK-LU-1
Outline: as §1

LC-2-ad = system: LC-2-ad
Outline: as §1

NCI-H358 = system: NCI-H358
Outline: as §1

NCI-H1755 = system: NCI-H1755
Outline: as §1

HOP-62 = system: HOP-62
Outline: as §1

NCI-H2170 = system: NCI-H2170
Outline: as §1

NCI-H460 = system: NCI-H460
Outline: as §1

A-427 = system: A-427
Outline: as §1

LU99A = system: LU99A
Outline: as §1

NCI-H2085 = system: NCI-H2085
Outline: as §1

LCLC-97TM1 = system: LCLC-97TM1
Outline: as §1

COR-L 105 = system: COR-L 105
Outline: as §1

NCI-H1793 = system: NCI-H1793
Outline: as §1

HCC-366 = system: HCC-366
Outline: as §1

NCI-H1944 = system: NCI-H1944
Outline: as §1

SW 900 = system: SW 900
Outline: as §1

In the case of C=C1C(=O)O[C@@H](CCCCCCCC)[C@@H]1C(=O)O [C-75] + Cc1cc(Nc2cc(N3CCN(C)CC3)nc(Sc3ccc(NC(=O)C4CC4)cc3)n2)n[nH]1 [Tozasertib] (partner 0.1 µM), the relative viability (EPLC-272H; first compound 0.08 µM) is reported as 0.299, the relative viability (EPLC-272H; first compound 0.253 µM) is reported as 0.243 and the relative viability (EPLC-272H; first compound 0.8 µM) is reported as 0.22. The relative viability (EPLC-272H; first compound 2.53 µM) was 0.25, the relative viability (EPLC-272H; first compound 8 µM) was 0.208 and the relative viability (NCI-H1975; first compound 0.08 µM) was 0.873. It also gave a relative viability (NCI-H1975; first compound 0.253 µM) of 0.757, a relative viability (NCI-H1975; first compound 0.8 µM) of 0.684 and a relative viability (NCI-H1975; first compound 2.53 µM) of 0.732. For the same compound, the relative viability (NCI-H1975; first compound 8 µM) was 0.78, the relative viability (LXF-289; first compound 0.08 µM) was 0.193 and the relative viability (LXF-289; first compound 0.253 µM) was 0.18. For the same compound, the relative viability (LXF-289; first compound 0.8 µM) was 0.183, the relative viability (LXF-289; first compound 2.53 µM) was 0.119 and the relative viability (LXF-289; first compound 8 µM) was 0.182. For the same compound, the relative viability (UMC-11; first compound 0.08 µM) was 0.213, the relative viability (UMC-11; first compound 0.253 µM) was 0.202 and the relative viability (UMC-11; first compound 0.8 µM) was 0.209. The relative viability (UMC-11; first compound 2.53 µM) was 0.161, the relative viability (UMC-11; first compound 8 µM) was 0.227 and the relative viability (HCC-78; first compound 0.08 µM) was 0.431. The relative viability (HCC-78; first compound 0.253 µM) was 0.505, the relative viability (HCC-78; first compound 0.8 µM) was 0.458 and the relative viability (HCC-78; first compound 2.53 µM) was 1.28. The relative viability (HCC-78; first compound 8 µM) was 0.444, the relative viability (NCI-H1915; first compound 0.08 µM) was 0.405 and the relative viability (NCI-H1915; first compound 0.253 µM) was 0.403. The relative viability (NCI-H1915; first compound 0.8 µM) was 0.432, the relative viability (NCI-H1915; first compound 2.53 µM) was 0.409 and the relative viability (NCI-H1915; first compound 8 µM) was 0.429. The relative viability (SK-LU-1; first compound 0.08 µM) was 0.349, the relative viability (SK-LU-1; first compound 0.253 µM) was 0.374 and the relative viability (SK-LU-1; first compound 0.8 µM) was 0.357. For the same compound, the relative viability (SK-LU-1; first compound 2.53 µM) was 0.314, the relative viability (SK-LU-1; first compound 8 µM) was 0.311 and the relative viability (LC-2-ad; first compound 0.08 µM) was 0.515. The relative viability (LC-2-ad; first compound 0.253 µM) was 0.503, the relative viability (LC-2-ad; first compound 0.8 µM) was 0.443 and the relative viability (LC-2-ad; first compound 2.53 µM) was 0.418. The relative viability (LC-2-ad; first compound 8 µM) was 0.399, the relative viability (NCI-H358; first compound 0.08 µM) was 0.0979 and the relative viability (NCI-H358; first compound 0.253 µM) was 0.104. The relative viability (NCI-H358; first compound 0.8 µM) was 0.104, the relative viability (NCI-H358; first compound 2.53 µM) was 0.0847 and the relative viability (NCI-H358; first compound 8 µM) was 0.103. It also gave a relative viability (NCI-H1755; first compound 0.08 µM) of 0.568, a relative viability (NCI-H1755; first compound 0.253 µM) of 0.638 and a relative viability (NCI-H1755; first compound 0.8 µM) of 0.552. It also gave a relative viability (NCI-H1755; first compound 2.53 µM) of 0.512, a relative viability (NCI-H1755; first compound 8 µM) of 0.572 and a relative viability (HOP-62; first compound 0.08 µM) of 0.373. It also gave a relative viability (HOP-62; first compound 0.253 µM) of 0.389, a relative viability (HOP-62; first compound 0.8 µM) of 0.363 and a relative viability (HOP-62; first compound 2.53 µM) of 0.385. For the same compound, the relative viability (HOP-62; first compound 8 µM) was 0.335, the relative viability (NCI-H2170; first compound 0.08 µM) was 0.682 and the relative viability (NCI-H2170; first compound 0.253 µM) was 0.826. The relative viability (NCI-H2170; first compound 0.8 µM) was 0.796, the relative viability (NCI-H2170; first compound 2.53 µM) was 0.291 and the relative viability (NCI-H2170; first compound 8 µM) was 0.861. The relative viability (NCI-H460; first compound 0.08 µM) was 0.405, the relative viability (NCI-H460; first compound 0.253 µM) was 0.798 and the relative viability (NCI-H460; first compound 0.8 µM) was 0.391. For the same compound, the relative viability (NCI-H460; first compound 2.53 µM) was 0.657, the relative viability (NCI-H460; first compound 8 µM) was 0.449 and the relative viability (A-427; first compound 0.08 µM) was 0.219. For the same compound, the relative viability (A-427; first compound 0.253 µM) was 0.264, the relative viability (A-427; first compound 0.8 µM) was 0.221 and the relative viability (A-427; first compound 2.53 µM) was 0.199. For the same compound, the relative viability (A-427; first compound 8 µM) was 0.175, the relative viability (LU99A; first compound 0.08 µM) was 0.272 and the relative viability (LU99A; first compound 0.253 µM) was 0.251. It also gave a relative viability (LU99A; first compound 0.8 µM) of 0.253, a relative viability (LU99A; first compound 2.53 µM) of 0.283 and a relative viability (LU99A; first compound 8 µM) of 0.288. The relative viability (NCI-H2085; first compound 0.08 µM) was 0.798, the relative viability (NCI-H2085; first compound 0.253 µM) was 0.746 and the relative viability (NCI-H2085; first compound 0.8 µM) was 0.79. It also gave a relative viability (NCI-H2085; first compound 2.53 µM) of 0.803, a relative viability (NCI-H2085; first compound 8 µM) of 0.67 and a relative viability (LCLC-97TM1; first compound 0.08 µM) of 0.23. The relative viability (LCLC-97TM1; first compound 0.253 µM) was 0.319, the relative viability (LCLC-97TM1; first compound 0.8 µM) was 0.22 and the relative viability (LCLC-97TM1; first compound 2.53 µM) was 0.16. For the same compound, the relative viability (LCLC-97TM1; first compound 8 µM) was 0.187, the relative viability (COR-L 105; first compound 0.08 µM) was 0.366 and the relative viability (COR-L 105; first compound 0.253 µM) was 0.167. For the same compound, the relative viability (COR-L 105; first compound 0.8 µM) was 0.412, the relative viability (COR-L 105; first compound 2.53 µM) was 0.351 and the relative viability (COR-L 105; first compound 8 µM) was 0.341. For the same compound, the relative viability (NCI-H1793; first compound 0.08 µM) was 0.306, the relative viability (NCI-H1793; first compound 0.253 µM) was 0.315 and the relative viability (NCI-H1793; first compound 0.8 µM) was 0.344. It also gave a relative viability (NCI-H1793; first compound 2.53 µM) of 0.258, a relative viability (NCI-H1793; first compound 8 µM) of 0.335 and a relative viability (HCC-366; first compound 0.08 µM) of 0.197. It also gave a relative viability (HCC-366; first compound 0.253 µM) of 0.151, a relative viability (HCC-366; first compound 0.8 µM) of 0.158 and a relative viability (HCC-366; first compound 8 µM) of 0.115. The relative viability (NCI-H1944; first compound 0.08 µM) was 0.256, the relative viability (NCI-H1944; first compound 0.253 µM) was 0.235 and the relative viability (NCI-H1944; first compound 0.8 µM) was 0.243. For the same compound, the relative viability (NCI-H1944; first compound 8 µM) was 0.246, the relative viability (SW 900; first compound 0.08 µM) was 0.595 and the relative viability (SW 900; first compound 0.253 µM) was 0.919. It also gave a relative viability (SW 900; first compound 0.8 µM) of 0.571, a relative viability (SW 900; first compound 2.53 µM) of 0.704 and a relative viability (SW 900; first compound 8 µM) of 0.506.
